# How the values were obtained:
# L. acidophilus NCFM [1] = test: Growth of L. acidophilus NCFM on plant glycosides as single carbon source (OD600); assay type: cell-based, Lactobacillus acidophilus; conditions: for OD600 max: single carbon source, 200 μl cultures, 96 microtitre plates, corrected for medium without carbon source
# Protocol: (§1) For initial growth and gene expression studies, L. acidophilus NCFM was propagated three times in semi-defined medium (SDM) supplemented with either 1% or 0,5% (w/v) of the plant glycoside or carbohydrate (Table 1). For the RNA-seq analysis, cells were harvested by centrifugation (3,220×10 min, 25° C.) in the mid-exponential phase (OD600=0.6-0.8) and stored at −80° C. for subsequent RNA isolation. For the mass spectrometry metabolite analyses, 200 μt samples were taken at 0, 3, 6, 9, 12, and 24 hours of growth; cells were removed by centrifugation; and supernatants were stored at −80° C. for further analysis.
# (§2) Phenotypic growth assays were performed using 1% (v/v) overnight cultures of L. acidophilus strains (Table 2) and other Lactobacillus species (Table 3) grown on SDM supplemented with 1% (w/v) glucose to inoculate 200 μL of SDM supplemented with 1% (w/v) of the examined carbohydrate (0.5% in the case of esculin) in 96-well microplate wells (Corning Costar, Corning, N.Y., USA) in duplicate or triplicate wells, respectively. The microplates were sealed with clear adhesive film, incubated at 37° C. in a Fluostar Optima microplate reader (BMG Labtech, Cary, N.C., USA), and the cell optical density (OD600) was monitored for 30 hours.
# The growth of L. acidophilus NCFM was evaluated on twelve chemically diverse, nutritionally relevant and/or therapeutically active PGs 1; Table 1). FIG. 1A provides the structures and common sources of plant glycoside substrates described herein. The compounds that support growth of Lactobacillus acidophilus are in green. RI: β-D-Glcp; R2: Gentiobioside (β-D-Glcp-(1,6)-D-Glcp); R3: Rutinoside (α-L-Rhaf-(1,6)-D-Glcp). The graph in FIG. 1B depicts plant glycoside utilization analyzed by mass spectrometry and the growth as the maximum OD600. Due to the low solubility of polydatin, OD600 cannot be used as a growth metric and utilization of this compound is confirmed by the production of lactate as well as a high utilization level based on the metabolite analysis.
# L. acidophilus NCFM [2] = test: Plant glycoside uptake and metabolite analysis of L. acidophilus NCFM culture supernatants by UHPLC-DAD-Q-TOF-MS; assay type: cell-based, Lactobacillus acidophilus; conditions: qualitative: depletion of the plant glycoside and/or appearance of its metabolites
# Protocol: as §1
# Analysis of plant glycoside uptake from L. acidophilus NCFM culture supernatants using mass spectrometry. The supernatants of L. acidophilus NCFM cultures grown on amygdalin, arbutin, esculin or salicin as carbon sources were analyzed during 24 hours by ultra-high performance liquid chromatography-diode array detection-quadruple time of flight mass spectrometry (UHPLC-DAD-Q-TOF-MS). Samples were diluted 1:20 (v/v) with methanol and an injection volume of […] was used. Separation was carried out on an Agilent Poroshell 120 phenyl-hexyl column (2.1×150 mm, 2.7 μm) using the Agilent Infinity 1290 UHPLC system (Agilent Technologies, Santa Clara, Calif., USA) equipped with a UV/vis spectrum diode array detector. Separation was performed at 0.35 mL min-1., 60° C. with a linear gradient consisting of water (A) and acetonitrile (B) both buffered with 20 mM formic acid, starting at 10% B and increased to 100% in 15 min where it was held for 2 min, returned to 10% in 0.1 min and kept for 3 min. MS detection was performed on an Agilent 6550 iFunnel QTOF MS equipped with Agilent Dual Jet Stream electrospray ion source with the drying gas temperature of 160° C. and gas flow of 13 L min^−1, whereas the sheath gas temperature was 300° C. and flow was 16 L min-1. Ionization was conducted in ESI-mode with capillary voltage set to 4000 V and nozzle voltage to 500 V. Mass spectra were recorded as centroid data for m/z 85-1700 in MS mode with an acquisition rate of 10 spectra s^−1. To avoid carry-over, the needle seat was back-flushed for 15 s at 4 mL min-1 with each of: i) isopropanol: 0.2% ammonium hydroxide (w/v) in water (1:1 v/v); ii) acetonitrile with 2% formic acid (w/v); iii) water with 2% formic acid. Data was processed with the Agilent Mass Hunter Qualitative Analysis B.07.00 software package (Agilent Technologies) and molar concentrations were obtained from standard curves of the plant glycosides and their main metabolites. Targeted compound searches were performed using lists of previously identified compounds plus standard chemical modifications.
# [3] = test system: L. crispatus ATCC 33820, DSM 20584; test: Phenotypic growth assay (OD600); assay type: cell-based; conditions: SDM + 1% (w/v) carbohydrate (0.5% esculin), 37° C., 30 hours; corrected to medium without carbohydrate
# Protocol: as §2
# [4] = test system: L. plantarum sp. plantarum ATCC 14917, LA70; test: Phenotypic growth assay (OD600); assay type: cell-based; conditions: SDM + 1% (w/v) carbohydrate (0.5% esculin), 37° C., 30 hours; corrected to medium without carbohydrate
# Protocol: as §2
# L. acidophilus LA-1 = test: Phenotypic growth assay (OD600); assay type: cell-based; conditions: SDM + 1% (w/v) carbohydrate (0.5% esculin), 37° C., 30 hours; corrected to medium without carbohydrate
# Protocol: as §2
# L. johnsonii ATCC 33200 = test: Phenotypic growth assay (OD600); assay type: cell-based; conditions: SDM + 1% (w/v) carbohydrate (0.5% esculin), 37° C., 30 hours; corrected to medium without carbohydrate
# Protocol: as §2
# L. fermentum ATCC 14931 = test: Phenotypic growth assay (OD600); assay type: cell-based; conditions: SDM + 1% (w/v) carbohydrate (0.5% esculin), 37° C., 30 hours; corrected to medium without carbohydrate
# Protocol: as §2
# L. helveticus CNRZ32 = test: Phenotypic growth assay (OD600); assay type: cell-based; conditions: SDM + 1% (w/v) carbohydrate (0.5% esculin), 37° C., 30 hours; corrected to medium without carbohydrate
# Protocol: as §2
# [5] = test system: L. reuteri (ATCC 23272, DSM 20016); test: Phenotypic growth assay (OD600); assay type: cell-based; conditions: SDM + 1% (w/v) carbohydrate (0.5% esculin), 37° C., 30 hours; corrected to medium without carbohydrate
# Protocol: as §2
# [6] = test system: L. intestinalis Th4, ATCC 49335, DSM 6629; test: Phenotypic growth assay (OD600); assay type: cell-based; conditions: SDM + 1% (w/v) carbohydrate (0.5% esculin), 37° C., 30 hours; corrected to medium without carbohydrate
# Protocol: as §2
# [7] = test system: L. rhanmosus GG (ATCC 53103); test: Phenotypic growth assay (OD600); assay type: cell-based; conditions: SDM + 1% (w/v) carbohydrate (0.5% esculin), 37° C., 30 hours; corrected to medium without carbohydrate
# Protocol: as §2
# L. animalis DSM 20602 = test: Phenotypic growth assay (OD600); assay type: cell-based; conditions: SDM + 1% (w/v) carbohydrate (0.5% esculin), 37° C., 30 hours; corrected to medium without carbohydrate
# Protocol: as §2
# [8] = test system: L. amyloverus ATCC 33620, DSM 20531; test: Phenotypic growth assay (OD600); assay type: cell-based; conditions: SDM + 1% (w/v) carbohydrate (0.5% esculin), 37° C., 30 hours; corrected to medium without carbohydrate
# Protocol: as §2
# [9] = test system: L. jensenii ATCC 25258, 62G, DSM 20557; test: Phenotypic growth assay (OD600); assay type: cell-based; conditions: SDM + 1% (w/v) carbohydrate (0.5% esculin), 37° C., 30 hours; corrected to medium without carbohydrate
# Protocol: as §2
# L. gasseri ATCC 33323 = test: Phenotypic growth assay (OD600); assay type: cell-based; conditions: SDM + 1% (w/v) carbohydrate (0.5% esculin), 37° C., 30 hours; corrected to medium without carbohydrate
# Protocol: as §2
# [10] = growth concentration 0.5% (w/v)
structure (smiles),measurement,setting,value
O=c1c(-c2ccc(O)cc2)coc2cc(O[C@@H]3O[C@H](CO)[C@@H](O)[C@H](O)[C@H]3O)ccc12 [Daidzin],OD600 max,L. acidophilus NCFM [1]; [10],0.0
OCC1=C[C@@H](O)[C@@H]2C=CO[C@@H](O[C@@H]3O[C@H](CO)[C@@H](O)[C@H](O)[C@H]3O)[C@H]12 [Aucubin],OD600 max,L. acidophilus NCFM [1]; [10],0.0
same,Catabolism based on MS,L. acidophilus NCFM [2]; [10],No
C[C@@H]1O[C@@H](OC[C@H]2O[C@@H](Oc3c(-c4ccc(O)c(O)c4)oc4cc(O)cc(O)c4c3=O)[C@H](O)[C@@H](O)[C@@H]2O)[C@H](O)[C@H](O)[C@H]1O [Rutin hydrate],OD600 max,L. acidophilus NCFM [1]; [10],0.1
COc1cc(C=O)ccc1O[C@@H]1O[C@H](CO)[C@@H](O)[C@H](O)[C@H]1O [Vanilin 4-O-β-glucoside],OD600 max,L. acidophilus NCFM [1]; [10],1.3
same,Catabolism based on MS,L. acidophilus NCFM [2]; [10],Yes
OC[C@H]1O[C@@H](Oc2ccc(O)cc2)[C@H](O)[C@@H](O)[C@@H]1O [Arbutin],Growth (OD600 max class) of L. acidophilus NCFM,"L. acidophilus NCFM [1]; SDM + 1% (w/v) carbohydrate (0.5% esculin), 37° C., 30 hours, corrected to medium without carbohydrate",− (“−” signifies OD600 max < 0.1.)
same,OD600 max,L. acidophilus NCFM [1]; growth concentration 1% (w/v),0.0
same,"Growth (OD600 max class) of L. crispatus ATCC 33820, DSM 20584",[3],− (“−” signifies OD600 max < 0.1.)
same,"Growth (OD600 max class) of L. plantarum sp. plantarum ATCC 14917, LA70",[4],+++ (“+++” signifies OD600 max > 0.6.)
same,Growth (OD600 max class) of L. acidophilus LA-1,L. acidophilus LA-1,− (“−” signifies OD600 max < 0.1.)
same,Growth (OD600 max class) of L. johnsonii ATCC 33200,L. johnsonii ATCC 33200,+ (“+” signifies 0.3 > OD600 max > 0.1.)
same,Growth (OD600 max class) of L. fermentum ATCC 14931,L. fermentum ATCC 14931,− (“−” signifies OD600 max < 0.1.)
same,Growth (OD600 max class) of L. helveticus CNRZ32,L. helveticus CNRZ32,− (“−” signifies OD600 max < 0.1.)
same,"Growth (OD600 max class) of L. reuteri (ATCC 23272, DSM 20016)",[5],− (“−” signifies OD600 max < 0.1.)
same,"Growth (OD600 max class) of L. intestinalis Th4, ATCC 49335, DSM 6629",[6],− (“−” signifies OD600 max < 0.1.)
same,Growth (OD600 max class) of L. rhanmosus GG (ATCC 53103),[7],+++ (“+++” signifies OD600 max > 0.6.)
same,Growth (OD600 max class) of L. animalis DSM 20602,L. animalis DSM 20602,+ (“+” signifies 0.3 > OD600 max > 0.1.)
same,"Growth (OD600 max class) of L. amyloverus ATCC 33620, DSM 20531",[8],− (“−” signifies OD600 max < 0.1.)
same,"Growth (OD600 max class) of L. jensenii ATCC 25258, 62G, DSM 20557",[9],+ (“+” signifies 0.3 > OD600 max > 0.1.)
same,Growth (OD600 max class) of L. gasseri ATCC 33323,L. gasseri ATCC 33323,− (“−” signifies OD600 max < 0.1.)
same,Catabolism based on MS,L. acidophilus NCFM [2]; growth concentration 1% (w/v),No
COc1cc2ccc(=O)oc2c(O[C@@H]2O[C@H](CO)[C@@H](O)[C@H](O)[C@H]2O)c1O [Fraxin],OD600 max,L. acidophilus NCFM [1]; [10],0.4
same,Catabolism based on MS,L. acidophilus NCFM [2]; [10],Yes
O=c1c(O[C@@H]2O[C@H](CO)[C@@H](O)[C@H](O)[C@H]2O)c(-c2ccc(O)c(O)c2)oc2cc(O)cc(O)c12 [Isoquercetin],OD600 max,L. acidophilus NCFM [1]; [10],0.0
C=CCC(=NOS(=O)(=O)O)S[C@@H]1O[C@H](CO)[C@@H](O)[C@H](O)[C@H]1O (stereo in doubt) [Sinigrin hydrate],OD600 max,L. acidophilus NCFM [1]; [10],0.0
OCc1ccccc1O [salicyl alcohol],ability of the aglycone per se to support growth,L. acidophilus NCFM [1]; data not shown,unable to support growth
